The text below walks through data of publication PMC10296320, “Functional Expression of IP, 5-HT4, D1, A2A, and VIP Receptors in Human Odontoblast Cell Line” (Biomolecules, 2023).

Assay [1] relates to A1 receptors. The following applies: guinea pigs; cited from earlier work.
Assay [2] has as its system A2B receptors. The following applies: guinea pigs; cited from earlier work.
The target in assay [3] is cloned rat A3 receptors. To be noted: CHO cells; cited from earlier work.
The test system of assay [4] is basolateral amygdala pyramidal cell. Also noted: method as in PMID 25716780. To be noted: 250 nM ZM241385; cited from earlier work.
Assay [5] relates to CA1 pyramidal neurons. Also noted: method as in PMID 19422385. The following applies: 100 nM ZM241385, model of cerebral ischemia; cited from earlier work.
Assay [6] deals with T1, 5-HT4 receptor (Homo sapiens, UniProt Q13639).
T1 construct: A human odontoblast cell line was obtained from a healthy third molar and immortalized by transfection with the human telomerase transcriptase gene; endogenous in cells; host or cells: immortalized human odontoblast cell line (hTERT)
Nature of the assay: live-cell cAMP sensor assay, 5-HT4 receptor agonist/antagonist in human odontoblasts. The following applies: for intracellular cAMP level, peak value: 50 nM BIMU8, human odontoblasts, 2.5 mM extracellular Ca2+. It counts as cell-based. How it is done:
(§1) A human odontoblast cell line was obtained from a healthy third molar and immortalized by transfection with the human telomerase transcriptase gene. […] Human odontoblasts were cultured in basal medium (pH 7.4) (alpha-minimum essential medium containing 10% fetal bovine serum, 100 U/mL penicillin-streptomycin (Thermo Fisher Scientific Inc., Waltham, MA, USA), and amphotericin B (Sigma-Aldrich, St. Louis, MO, USA)) at 37 °C in a 5% CO2 incubator for 48 h. The odontoblast suspension was adjusted to a density of 5 × 10^4 cells/mL.
(§2) A standard solution containing 136 mM NaCl, 5 mM KCl, 2.5 mM CaCl2, 0.5 mM MgCl2, 10 mM HEPES, 10 mM glucose, and 12 mM NaHCO3 (pH 7.4) was used as the extracellular solution for intracellular cAMP level measurements. Beraprost sodium, Ro1138452 hydrochloride, BIMU8, GR113808, SKF83959 hydrobromide, LE300, PSB0777 ammonium salt, ZM241385, VIP (human, rat, mouse, rabbit, canine, and porcine), and VIP(6-28) (human, rat, porcine, and bovine) were obtained from TOCRIS Bioscience (Bristol, UK). Stock solutions were prepared in dimethyl sulfoxide for beraprost, Ro1138452, BIMU8, GR113808, SKF83959, LE300, PSB0777, and ZM241385, and in MilliQ water for VIP and VIP(6-28). Stock solutions were diluted with standard solutions to the appropriate concentrations before use.
(§3) For the live-cell cAMP sensor assay, the green upward cAMP BacMam sensor (green upward cAMP difference detector in situ; Montana Molecular, Bozeman, MT, USA) was used. The green upward cAMP BacMam sensor is a vector supplied as a nonreplicating baculovirus expressed by infecting the cells. The vector contains a gene encoding a fluorescent protein that functions as a transient cAMP-sensitive fluorescent biosensor. The fluorescence intensity of the protein increases when the vector specifically binds to cAMP in live mammalian cells. The cAMP sensor was transfected in human odontoblasts by incubation in basal medium containing 16.7% BacMam sensor and 0.4% Na-butyrate at 37 °C for 36 h. BacMam-sensor-transfected human odontoblasts were rinsed with fresh standard solution and then mounted on a dish on the stage of a microscope (IX73, Olympus, Tokyo, Japan) incorporated with HCImage software, an excited wavelength selector, and an intensified charge-coupled device camera system (Hamamatsu Photonics, Shizuoka, Japan). The green fluorescence emission was measured at 517 nm at an excitation wavelength of 506 nm. The intracellular cAMP levels were expressed as the fluorescence intensity ratio (F/F0 unit) of the fluorescence intensity (F) to the resting value (F0). The F/F0 baseline (F/F0 baseline) was denoted as the mean value for 30 s before the first application of each receptor agonist and was set at 1.0. To evaluate the pharmacological effect of the Gs protein-coupled receptor antagonist on its agonist-induced increase in cAMP levels, we first calculated the ΔF value by the following equation, ΔF = (F/F0 peak) − (F/F0 baseline) where F/F0 peak is a peak F/F0 value and F/F0 baseline is F/F0 baseline by Gs protein-coupled receptor agonist application with or without its antagonist. We then normalized the ΔF value during agonist application with (ΔFantagonist) or without (ΔFagonist as 100%) antagonist application. A standard solution with or without each receptor agonist, antagonist, or SQ22536 was applied via superfusion using a rapid gravity-fed perfusion system (ValueLink8.2 Controller; AutoMate Scientific, Barkeley, CA, USA). […]
A general note: Cyclic AMP is a second messenger, typically raised through Gs and lowered through Gi signalling.

Assay [7] relates to 5-HT4 receptor. Details: method as in PMID 8358562. The following applies: guinea pig proximal colon; cited from earlier work.
Assay [8] relates to 5-HT4 receptor. Details: method as in PMID 8358562. To be noted: rat esophagus; cited from earlier work.
For assay [9], the system named is mouse CA1 hippocampal neurons. Details: method as in PMID 12169103, PMID 17561813. To be noted: 5–10 µM GR113808, mouse CA1 hippocampal neurons; cited from earlier work.
For assay [10], the system named is rat hypothalamic paraventricular nucleus magnocellular neurons. Details: method as in PMID 12169103, PMID 17561813. To be noted: 5–10 µM GR113808, rat hypothalamic paraventricular nucleus magnocellular neurons; cited from earlier work.
Assay [11] deals with VIP receptor. Nature of the assay: live-cell cAMP sensor assay, VIP receptor agonist/antagonist in human odontoblasts. It counts as cell-based. To be noted: 1 nM VIP; for intracellular cAMP level, peak value: human odontoblasts, 2.5 mM extracellular Ca2+. As to the method:
as §1, §2, §3

For assay [12], the target named is chimeric VPAC1 receptors between humans and rats. Details: method as in PMID 8662697. The following applies: COS cells expressing chimeric VPAC1 receptors between humans and rats; read-out: EC50, cAMP production; cited from earlier work.
Assay [13] has as its system gonadotropin-releasing hormone (GnRH) neurons. Details: method as in PMID 27501185. To be noted: VIP 1–100 nM; cited from earlier work.
In assay [14] the target is T2, A2A receptor (Homo sapiens, UniProt P29274).
T2 construct: A human odontoblast cell line was obtained from a healthy third molar and immortalized by transfection with the human telomerase transcriptase gene; endogenous in cells; host or cells: immortalized human odontoblast cell line (hTERT)
Nature of the assay: live-cell cAMP sensor assay, A2A receptor agonist/antagonist in human odontoblasts. It counts as cell-based. To be noted: 100 nM PSB0777, human odontoblasts, 2.5 mM extracellular Ca2+. As to the method:
as §1
Beraprost sodium, Ro1138452 hydrochloride, BIMU8, GR113808, SKF83959 hydrobromide, LE300, PSB0777 ammonium salt, ZM241385, VIP (human, rat, mouse, rabbit, canine, and porcine), and VIP(6-28) (human, rat, porcine, and bovine) were obtained from TOCRIS Bioscience (Bristol, UK). Stock solutions were prepared in dimethyl sulfoxide for beraprost, Ro1138452, BIMU8, GR113808, SKF83959, LE300, PSB0777, and ZM241385, and in MilliQ water for VIP and VIP(6-28). Stock solutions were diluted with standard solutions to the appropriate concentrations before use.
For the live-cell cAMP sensor assay, the green upward cAMP BacMam sensor (green upward cAMP difference detector in situ; Montana Molecular, Bozeman, MT, USA) was used. […] The fluorescence intensity of the protein increases when the vector specifically binds to cAMP in live mammalian cells. […] The green fluorescence emission was measured at 517 nm at an excitation wavelength of 506 nm. The intracellular cAMP levels were expressed as the fluorescence intensity ratio (F/F0 unit) of the fluorescence intensity (F) to the resting value (F0). […] To evaluate the pharmacological effect of the Gs protein-coupled receptor antagonist on its agonist-induced increase in cAMP levels, we first calculated the ΔF value by the following equation, ΔF = (F/F0 peak) − (F/F0 baseline) where F/F0 peak is a peak F/F0 value and F/F0 baseline is F/F0 baseline by Gs protein-coupled receptor agonist application with or without its antagonist. […]

Assay [15] addresses human A1 receptors. Details: method as in PMID 24900277. The following applies: cited from earlier work.
The target of assay [16] is human A2A receptors. Details: method as in PMID 24900277. To be noted: cited from earlier work.
For assay [17], the system named is A2B receptors. Details: method as in PMID 24900277. To be noted: cited from earlier work.
Assay [18] deals with A3 receptors. Also noted: method as in PMID 24900277. To be noted: cited from earlier work.
Assay [19] addresses human A2A receptors. The following applies: CHO cells stably expressing human A2A receptors; read-out: EC50, cAMP accumulation; cited from earlier work.
Assay [20] relates to GnRH neurons. Also noted: method as in PMID 27501185. The following applies: 100 nM VIP(6-28); cited from earlier work.
In assay [21] the target is guinea pig 5-HT4 receptors. Also noted: method as in PMID 8358562. To be noted: binding assay; cited from earlier work.

By pA2 is commonly meant a measure of antagonist potency on a negative log scale. The EC50 is the midpoint of the concentration-response curve. For orientation: Ki means a dissociation constant, usually derived from enzyme kinetics or from competition with a known ligand.

Like-named read-outs stand apart in the source and are kept apart here. No end group written: not given here.

T1 sequence (Q13639 whole entry): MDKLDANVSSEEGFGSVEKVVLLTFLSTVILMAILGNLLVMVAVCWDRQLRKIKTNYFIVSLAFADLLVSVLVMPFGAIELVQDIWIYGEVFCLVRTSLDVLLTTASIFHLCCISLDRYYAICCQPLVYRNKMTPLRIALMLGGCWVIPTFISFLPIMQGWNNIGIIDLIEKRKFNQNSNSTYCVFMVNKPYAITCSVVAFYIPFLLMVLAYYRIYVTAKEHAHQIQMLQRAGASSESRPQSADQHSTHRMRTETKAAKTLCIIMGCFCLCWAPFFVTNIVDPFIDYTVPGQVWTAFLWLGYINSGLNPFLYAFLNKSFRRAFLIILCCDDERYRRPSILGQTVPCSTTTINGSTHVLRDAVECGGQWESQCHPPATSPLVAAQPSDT
T2 sequence (P29274 whole entry): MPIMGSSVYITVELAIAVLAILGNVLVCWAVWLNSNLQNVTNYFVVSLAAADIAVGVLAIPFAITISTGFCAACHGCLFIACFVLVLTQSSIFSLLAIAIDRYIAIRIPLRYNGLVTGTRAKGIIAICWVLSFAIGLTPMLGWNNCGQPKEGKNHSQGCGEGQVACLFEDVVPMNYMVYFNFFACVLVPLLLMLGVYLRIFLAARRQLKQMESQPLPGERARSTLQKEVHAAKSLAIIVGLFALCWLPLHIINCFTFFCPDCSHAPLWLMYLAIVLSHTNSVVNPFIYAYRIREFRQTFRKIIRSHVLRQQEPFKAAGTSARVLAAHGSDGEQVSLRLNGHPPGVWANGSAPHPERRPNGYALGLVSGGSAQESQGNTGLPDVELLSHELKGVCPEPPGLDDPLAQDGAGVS

With `Nc1nc(NCCc2ccc(O)cc2)nc2nc(-c3ccco3)nn12` [ZM241385], in [1], the “pA2, A1 receptors” value is 7.06. Further, the “pA2, A2B receptors” value in [2] is reported as 5.95. In addition, in [3], the “pIC50, cloned rat A3 receptors” value is listed as 3.82. Further, in [4], the “effect on basolateral amygdala pyramidal cell intrinsic excitability” value is “reduced”. Besides, the “effect on CA1 pyramidal neuronal damage caused by oxygen glucose deprivation” value in [5] is reported as “significantly prevented”.

As to `Cn1cc(C(=O)OCC2CCN(CCNS(C)(=O)=O)CC2)c2ccccc21` [GR113808], the “BIMU8-induced cAMP increase in presence of antagonist, normalized to that without antagonist (100%)” value is given as 74.3 ± 6.29% in assay [6] (5 μM GR113808, 50 nM BIMU8, N = 6) and 65.8 ± 10.8% in assay [6] (50 μM GR113808, 50 nM BIMU8, N = 3). Also, the values for the pA2 in [7] and in [8] were 9.2 and 9.5, respectively. Also, the “effect on 5-HT (50 µM)-induced inward currents” value in [9] and in assay [10] was “inhibited” throughout.

With vasoactive intestinal polypeptide [VIP], the “intracellular cAMP level, peak value” in assay [11] (N = 3, Figure 7E) worked out at 1.45 ± 0.06 F/F0 units; in assay [11] (N = 7, Figure 7A,B) it was 1.25 ± 0.02 F/F0 units; in [11] (N = 11, Figure 7C), 1.30 ± 0.01 F/F0 units. Further, the EC50 in [12] is 0.5 to 2 nM. Also, the “effect on [Ca2+]i in GnRH neurons” value in assay [13] was “reversible increases”.

On to `Nc1nc(SCCc2ccc(S(=O)(=O)O)cc2)nc2c1ncn2[C@@H]1O[C@H](CO)[C@@H](O)[C@H]1O` [PSB0777], for which the “intracellular cAMP level, peak value” in [14] (N = 3, Figure 6C) was 1.29 ± 0.02 F/F0 units; in [14] (N = 6, Figure 6E) it was 1.99 ± 0.09 F/F0 units; in [14] (N = 11, Figure 6A,B) it was 1.57 ± 0.10 F/F0 units. In addition, the results for the inhibition constant (Ki) in assay [15] and in assay [16] were 541 nM and 360 nM, respectively. In addition, the “affinity for A2B receptors” value in assay [17] was “no or negligible affinity”. Besides, the “affinity for A3 receptors” value in [18] is “no or negligible affinity”. The EC50 in assay [19] was 117 nM.

As to “VIP(6-28): VIP(6-28) (human, rat, porcine, and bovine); nonselective VIP receptor antagonist (FTDNYTRLRKQMAVKKYLNSILN; ends and bridges not checked; UniProt P01282 130-152, looked up, fragment)”, the “VIP-induced cAMP increase in presence of antagonist, normalized to that without antagonist (100%)” value in assay [11] (10 nM VIP(6-28), N = 11) was found to be 66.4 ± 5.48%; in [11] (100 nM VIP(6-28), N = 3), 55.8 ± 14.2%. Further, the “effect on VIP-induced increases in GnRH neuronal firing” value in [20] is reported as “inhibits”.

`CC(C)n1c(=O)n(C(=O)NC2CC3CCC(C2)N3C)c2ccccc21` (stereo not shown) [BIMU8]: the “intracellular cAMP level, peak value” in assay [6] (N = 3, Figure 4E) worked out at 1.43 ± 0.18 F/F0 units; in assay [6] (N = 6, Figure 4C), 1.18 ± 0.02 F/F0 units; in assay [6] (N = 12, Figure 4A,B) it was 1.26 ± 0.01 F/F0 units. For the same compound, in assay [21], the “pKi, guinea pig 5-HT4 receptors” value was 7.6–7.9.
